Square brackets hold non-standard residues; d marks the D form. Peptide text beside a SMILES is read from it. d(hPhe) = N[C@H](CCc1ccccc1)C(=O)O; Aib = CC(C)(N)C(=O)O

The target of the first test is Growth hormone secretagogue receptor type 1 (Homo sapiens, UniProt Q92847). Briefly: Agonist activity at human GHS-R1.
Sequence of Growth hormone secretagogue receptor type 1 (Q92847 whole entry): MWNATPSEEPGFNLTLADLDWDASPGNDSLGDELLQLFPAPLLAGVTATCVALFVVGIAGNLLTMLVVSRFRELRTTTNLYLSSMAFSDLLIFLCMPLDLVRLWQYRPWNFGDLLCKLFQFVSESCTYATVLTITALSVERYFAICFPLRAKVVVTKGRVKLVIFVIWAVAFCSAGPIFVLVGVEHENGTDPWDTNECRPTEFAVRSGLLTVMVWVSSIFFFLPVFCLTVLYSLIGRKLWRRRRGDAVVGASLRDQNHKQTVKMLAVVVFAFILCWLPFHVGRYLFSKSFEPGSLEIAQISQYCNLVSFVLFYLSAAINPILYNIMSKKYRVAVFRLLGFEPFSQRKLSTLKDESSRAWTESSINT
Conditions: not given
The format is functional.
Consider `CC(C)(N)C(=O)N[C@H](CCCc1ccccc1)C(=O)N1CCC2(CC1)C[S+]([O-])c1ccccc12` (some centres not stated), for which the “Log EC50” value was -8.6.

Still in this test, the particulars now being: read-out: EC50.
Broadly, the EC50 is the midpoint of the concentration-response curve. In the case of `O=C(N[C@H](Cc1ccc2ccccc2c1)C(=O)N[C@@H](CO)Cc1c[nH]c2ccccc12)C1CCNCC1`, the EC50 worked out at 10 nM.

Regarding `CNC(C)(C)C/C=C/C(=O)N(C)[C@H](Cc1ccc2ccccc2c1)C(=O)N(C)CCc1ccccc1`, the EC50 is 3 nM.

For the compound `NCCNC(=O)[C@@H](Cc1cccc2ccccc12)NC(=O)CCN1C(=O)CCS(=O)(=O)c2ccccc21`, the EC50 was 10 nM.

For `NCC(O)CNC(=O)[C@@H](Cc1cccc2ccccc12)NC(=O)CCCN1C(=O)CCSc2ccccc21` (some centres not stated), the EC50 was determined as 1 nM.

As for `NCCCCNC(=O)[C@@H](Cc1ccc2ccccc2c1)NC(=O)[C@@H](Cc1ccc2ccccc2c1)NC(=O)C1CCNCC1`, the EC50 was determined as 17 nM.

Take `NC(=O)[C@@H](NC(=O)[C@@H](Cc1ccc2ccccc2c1)NC(=O)[C@@H](Cc1ccc2ccccc2c1)NC(=O)C1CCNCC1)c1ccccc1`: the EC50 worked out at 0.28 nM.

Turning to `O=C(N[C@H](Cc1ccc2ccccc2c1)C(=O)N[C@@H](CO)Cc1ccc2ccccc2c1)C1CCNCC1`, the EC50 is 1.8 nM.

On to `COC(=O)CS(=O)(=O)Nc1ccccc1N1CCN(C(=O)[C@@H](CCCc2ccccc2)NC(=O)C(C)(C)N)CC1`, for which the EC50 came out at 4.5 nM.

Regarding `CCNC(=O)[C@]1(Cc2ccccc2)CCCN(C(=O)[C@@H](Cc2c[nH]c3ccccc23)NC(=O)C(C)(C)N)C1`, the EC50 was 0.8 nM.

As for `CC(C)(N)C(=O)N[C@H](CCCc1ccccc1)C(=O)N1CCN(c2ccccc2NS(=O)(=O)CC(=O)O)CC1`, the EC50 was found to be 2.3 nM.

`CC(C)(N)C(=O)N[C@H](CCCc1ccccc1)C(=O)N1CCN(c2ccccc2NS(C)(=O)=O)CC1`: the EC50 came out at 6.3 nM.

In the case of `CC(C)S(=O)(=O)Nc1ccccc1N1CCN(C(=O)[C@@H](CCCc2ccccc2)NC(=O)C(C)(C)N)CC1`, the EC50 turned out to be 2.8 nM.

Regarding `Cc1ccccc1N1CCN(C(=O)[C@@H](CCCc2ccccc2)NC(=O)C(C)(C)N)CC1`, the EC50 amounted to 100 nM.

With `CCN(CC)CCN1C(=O)[C@@](O)(c2ccc3ccccc3c2)c2c(Br)cccc21`, the EC50 is 77 nM.

In the case of `CCN(CC)CCN1C(=O)[C@@](O)(c2ccc3ccccc3c2)c2c1cc(C#CCCC(=O)N1CCOCC1)cc2C(F)(F)F`, the EC50 was found to be 30 nM.

As to `CCN(CC)CCN1C(=O)[C@@](O)(c2ccc3ccccc3c2)c2c1cc(C#CCCC(=O)N(C)C)cc2C(F)(F)F`, the EC50 was determined as 30 nM.

As to `CCN(CC)CCN1C(=O)[C@@](O)(c2ccc3ccccc3c2)c2c1cc(C(N)=O)cc2C(F)(F)F`, the EC50 is 18 nM.

Regarding `CCOC(=O)[C@]1(Cc2ccccc2)CCCN(C(=O)[C@@H](Cc2c[nH]c3ccccc23)NC(=O)C(C)(C)N)C1`, the EC50 came to 1.6 nM.

For `CCOC(=O)[C@@H](CCc1ccccc1)NC(=O)[C@@H](Cc1c[nH]c2ccccc12)NC(=O)C(C)(C)N` (H-[Aib]-[dW]-[d(hPhe)]-OEt), the EC50 turned out to be 3 nM.

Still in this test, the particulars now being: read-out: Log EC50 (converted).
As for `NCC(O)CNC(=O)[C@@H](Cc1cccc2ccccc12)NC(=O)CCCN1C(=O)CCSc2ccccc21` (some centres not stated), the EC50 was 2 nM.

In the case of `Cc1ccccc1N1CCN(C(=O)[C@@H](CCCc2ccccc2)NC(=O)C(C)(C)N)CC1`, the EC50 was 14.1 nM.
